pIC50: −log10 of the molar value. “And” between values parts separate entries of the source, which are not always exact repeats. Equal values may be shown once.
Legend:
AHR = biological target: T1, AHR (UniProt P35869); experiment: DRE-Luciferase Reporter Assay (Alternate Method) (Example 1B); type: cell-based, murine or human; settings: cell line and AHR activating ligand not specified
T1 construct: IC50
T1 sequence (P35869 1-848): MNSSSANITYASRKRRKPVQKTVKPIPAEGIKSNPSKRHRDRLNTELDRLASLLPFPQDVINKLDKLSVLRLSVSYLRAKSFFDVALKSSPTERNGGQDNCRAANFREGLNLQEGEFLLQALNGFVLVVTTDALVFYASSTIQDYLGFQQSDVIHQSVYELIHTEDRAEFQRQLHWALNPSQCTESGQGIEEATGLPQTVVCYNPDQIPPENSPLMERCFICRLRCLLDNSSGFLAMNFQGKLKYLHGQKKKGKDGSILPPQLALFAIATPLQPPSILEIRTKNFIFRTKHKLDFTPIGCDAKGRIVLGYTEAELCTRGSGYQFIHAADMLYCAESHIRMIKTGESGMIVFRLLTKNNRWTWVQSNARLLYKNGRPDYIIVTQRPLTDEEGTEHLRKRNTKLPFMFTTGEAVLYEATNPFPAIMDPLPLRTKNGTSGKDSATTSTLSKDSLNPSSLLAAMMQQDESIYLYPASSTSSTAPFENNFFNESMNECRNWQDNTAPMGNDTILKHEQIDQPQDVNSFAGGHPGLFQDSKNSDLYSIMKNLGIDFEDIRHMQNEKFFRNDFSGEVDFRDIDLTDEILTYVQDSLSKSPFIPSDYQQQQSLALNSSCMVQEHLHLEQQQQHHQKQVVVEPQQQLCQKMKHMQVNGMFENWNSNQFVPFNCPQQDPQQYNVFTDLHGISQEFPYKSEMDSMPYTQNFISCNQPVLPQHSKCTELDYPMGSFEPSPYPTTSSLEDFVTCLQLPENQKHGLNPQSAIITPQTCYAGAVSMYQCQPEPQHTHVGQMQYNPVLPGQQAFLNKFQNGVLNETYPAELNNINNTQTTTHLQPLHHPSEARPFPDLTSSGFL

[1] = In Vitro Mouse liver S9 Metabolic Stability Assay (Example 1D); type: in vitro ADME; settings: CD-1 mouse liver S9, 1 μM compound, 1 mg/mL S9 protein, 37° C., NADPH regenerating system, UDPGA, PAPS
Method: CD-1 mouse liver S9 were purchased from Corning or XenoTech LLC or BioreclamationIVT, LLC or WuXi prepared. The cells were stored at −80° C. in a freezer before use. β-Nicotinamide adenine dinucleotide phosphate (NADP), Glucose 6-phosphate (G6P), Glucose 6-phosphate dehydrogenase from yeast (G6PDH), Uridine 5′-diphophoglucuronic acid trisodium salt (UDPGA) and Adenosine 3′-phosphate 5′-phosphosulfate lithium salt hydrate (PAPS) were available commercially from Sigma.
Compounds were diluted in DMSO to make 10 mM stock solution. 5 μL of this stock solution (10 mM, DMSO) was diluted with 45 μL DMSO and 450 μL 50% Methanol/Water to make intermediate stock solution (100 μM, 45% MeOH, 10% DMSO). 50 μL of intermediate stock solution was diluted with 450 μL 100 mM phosphate buffer to make a final stock solution (10 μM, 4.5% MeOH, 1% DMSO). 10 uL of final stock solution was added to 90 uL liver S9 system (final concentration of 1 μM, 0.45% MeOH, 0.1% DMSO).
Test compounds were incubated at 37° C. with liver S9 (pooled from multiple donors) at 1 μM in the presence of a NADPH regenerating system, UDPGA, and PAPS at 1 mg/mL S9 protein. Time samples (0 and 60 minutes) were removed and immediately mixed with cold acetonitrile containing internal standard (IS). Samples were analyzed by LC/MS/MS and disappearance of test compounds were assessed based on peak area ratios of analyte /IS (no standard curve). All samples were injected and analyzed using LC-MS/MS. The analyte/internal standard peak area ratios were converted to percentage remaining (% Remaining) with the following equation: % Remaining at 60 min=(Peak area ratio of analyte to IS at 60 min/Peak area ratio of analyte to IS at t=0)×100%. Table 5. Mouse Stability Data According to Example 1D.

pIC50 (AHR) | Mouse S9 Stability: % Remaining After 60 Minutes [1] | SMILES
> 6.30 | 11% | CC(C)c1cnc2c(N[C@@H]3CCc4[nH]c5ccccc5c4C3)nc(-c3cncc(F)c3)cn12 [I-30, (3R)—N-[6-(5-Fluoro-3-pyridyl)-3-isopropyl-imidazo[1,2-a]pyrazin-8-yl]-2,3,4,9-tetrahydro-1H-carbazol-3-amine]
< 5.82 | 29% | Fc1cncc(-c2nc(N[C@@H]3CCc4[nH]c5ccccc5c4C3)cc(N3CCCC3)n2)c1 [I-36, (3R)—N-[2-(5-Fluoro-3-pyridyl)-6-pyrrolidin-1-yl-pyrimidin-4-yl]-2,3,4,9-tetrahydro-1H-carbazol-3-amine]
> 6.30 | 3% | CC(C)Oc1cc(-c2cncc(F)c2)nc(NCCc2c[nH]c3ccccc23)n1 [I-72, 4-(5-Fluoro-3-pyridyl)-N-[2-(1H-indol-3-yl)ethyl]-6-isopropoxy-pyrimidin-2-amine]
> 6.30 | 1% | CC(C)c1cnc2c(NCCc3c[nH]c4ccccc34)nc(-c3cncc(F)c3)cn12 [I-106, 6-(5-Fluoro-3-pyridyl)-N-[2-(1H-indol-3-yl)ethyl]-3-isopropyl-imidazo[1,2-a]pyrazin-8-amine]
> 6.30 | 10% | CC(C)c1cnn2c(NC3Cc4ccc(O)cc4C3)cc(-c3cncc(F)c3)nc12 (stereo not drawn) [I-109, 2-[[5-(5-Fluoro-3-pyridyl)-3-isopropyl-pyrazolo[1,5-a]pyrimidin-7-yl]amino]indan-5-ol]
< 5.82 | 28% | CC(C)c1ccc2c(N[C@@H]3CCc4[nH]c5ccccc5c4C3)nc(-c3cncc(F)c3)nn12 [I-156]
> 6.30 | 54% | CC(C)n1cnc2c(N[C@@H]3CCc4[nH]c5ccccc5c4C3)nc(-c3cncc(F)c3)nc21 [I-162, (3R)—N-[2-(5-Fluoro-3-pyridyl)-9-isopropyl-purin-6-yl]-2,3,4,9-tetrahydro-1H-carbazol-3-amine]
> 6.30 | 0% | Cc1cnn2c(NCCc3c[nH]c4ccccc34)nc(-c3cncc(F)c3)nc12 [I-164, 2-(5-Fluoro-3-pyridyl)-N-[2-(1H-indol-3-yl)ethyl]-8-methyl-pyrazolo[1,5-a][1,3,5]triazin-4-amine]
> 6.30 | 3% | Fc1cncc(-c2nc(N[C@@H]3CCc4[nH]c5ccccc5c4C3)n3nccc3n2)c1 [I-165, (3R)—N-[2-(5-Fluoro-3-pyridyl)pyrazolo[1,5-a][1,3,5]triazin-4-yl]-2,3,4,9-tetrahydro-1H-carbazol-3-amine]
> 6.30 | 2% | CC(C)(O)c1cnn2c(NCCc3c[nH]c4ccccc34)cc(-c3cncc(F)c3)nc12 [I-177, 2-[5-(5-Fluoro-3-pyridyl)-7-[2-(1H-indol-3-yl)ethylamino]pyrazolo[1,5-a]pyrimidin-3-yl]propan-2-ol]

Further lines, the compound ahead of its results:

SMILES | pIC50 (AHR) | Mouse S9 Stability: % Remaining After 60 Minutes [1]
CC(C)c1cnn2c(NCCc3c[nH]c4ccccc34)cc(-c3ccccc3)nc12 [I-45, N-[2-(1H-indol-3-yl)ethyl]-3-isopropyl-5-phenyl-pyrazolo[1,5-a]pyrimidin-7-amine] | > 6.30 | 19%
Fc1cncc(-c2cc(NCCc3c[nH]c4ccccc34)n3ncc(C(F)(F)F)c3n2)c1 [I-47, 5-(5-Fluoro-3-pyridyl)-N-[2-(1H-indol-3-yl)ethyl]-3-(trifluoromethyl)pyrazolo[1,5-a]pyrimidin-7-amine] | > 6.30 | 50%
CN1CCN(c2cc(NCCc3c[nH]c4ccccc34)nc(-c3cncc(F)c3)n2)CC1 [I-67, 2-(5-Fluoro-3-pyridyl)-N-[2-(1H-indol-3-yl)ethyl]-6-(4-methylpiperazin-1-yl)pyrimidin-4-amine] | > 6.30 | 5% and 1%
CN1CCN(C(=O)c2cnn3c(NCCc4c[nH]c5ccccc45)cc(-c4cncc(F)c4)nc23)CC1 [I-68, [5-(5-Fluoro-3-pyridyl)-7-[2-(1H-indol-3-yl)ethylamino]pyrazolo[1,5-a]pyrimidin-3-yl]-(4-methylpiperazin-1-yl)methanone] | 6.00 to 6.30 | 4%
NC(=O)c1cnn2c(NCCc3c[nH]c4ccccc34)cc(-c3cncc(F)c3)nc12 [I-78, 5-(5-Fluoro-3-pyridyl)-7-[2-(1H-indol-3-yl)ethylamino]pyrazolo[1,5-a]pyrimidine-3-carboxamide] | > 6.30 | 1%
CC(C)c1cnn2c(NCCc3c[nH]c4ccccc34)cc(-c3cncc(C#N)c3)nc12 [I-81, 5-[7-[2-(1H-indol-3-yl)ethylamino]-3-isopropyl-pyrazolo[1,5-a]pyrimidin-5-yl]pyridine-3-carbonitrile] | > 6.30 | 2%
CC(C)(C)c1cnn2c(NCCc3c[nH]c4ccccc34)cc(-c3cncc(F)c3)nc12 [I-90, 3-tert-Butyl-5-(5-fluoro-3-pyridyl)-N-[2-(1H-indol-3-yl)ethyl]pyrazolo[1,5-a]pyrimidin-7-amine] | > 6.30 | 11%
CON(C)C(=O)c1cnn2c(NCCc3c[nH]c4ccccc34)cc(-c3cncc(F)c3)nc12 [I-92, 5-(5-Fluoro-3-pyridyl)-7-[2-(1H-indol-3-yl)ethylamino]-N-methoxy-N-methyl-pyrazolo[1,5-a]pyrimidine-3-carboxamide] | > 6.30 | 0%
CC(C)c1cnn2c(NCCc3c[nH]c4c(F)cc(F)cc34)nc(-c3cncc(F)c3)nc12 [I-96, N-[2-(5,7-Difluoro-1H-indol-3-yl)ethyl]-2-(5-fluoro-3-pyridyl)-8-isopropyl-pyrazolo[1,5-a][1,3,5]triazin-4-amine] | > 6.30 | 36%
CC(C)c1cnn2c(NCCc3c[nH]c4cccnc34)nc(-c3cncc(F)c3)nc12 [I-101, 2-(5-Fluoro-3-pyridyl)-8-isopropyl-N-[2-(1H-pyrrolo[3,2-b]pyridin-3-yl)ethyl]pyrazolo[1,5-a][1,3,5]triazin-4-amine] | > 6.30 | 1%
Fc1cncc(-c2nc(NCCc3c[nH]c4ccccc34)cc(N3CCCC3)n2)c1 [I-105, 2-(5-Fluoro-3-pyridyl)-N-[2-(1H-indol-3-yl)ethyl]-6-pyrrolidin-1-yl-pyrimidin-4-amine] | > 6.30 | 8%
CC(C)c1cnn2c(NCCc3cc[nH]c3)nc(-c3cncc(F)c3)nc12 [I-166, 2-(5-Fluoro-3-pyridyl)-8-isopropyl-N-[2-(1H-pyrrol-3-yl)ethyl]pyrazolo[1,5-a][1,3,5]triazin-4-amine] | > 6.30 | 4%
Cc1cnn2c(NCCc3cc[nH]c3)cc(-c3cncc(F)c3)nc12 [I-196, 5-(5-Fluoro-3-pyridyl)-3-methyl-N-[2-(1H-pyrrol-3-yl)ethyl]pyrazolo[1,5-a]pyrimidin-7-amine] | > 6.30 | 0%
Cc1[nH]c2c(F)cccc2c1CCNc1nc(-c2cncc(F)c2)nc2ccnn12 [I-200, N-[2-(7-fluoro-2-methyl-1H-indol-3-yl)ethyl]-2-(5-fluoro-3-pyridyl)pyrazolo[1,5-a][1,3,5]triazin-4-amine] | > 6.30 | 0%

— patent US11358969B2, “Indole AHR inhibitors and uses thereof” (Ikena Oncology, Inc., priority 2017, dated 2022)
